Measurements: patent US20070010486A1 (priority 2005, published 2007)
Counter-ions that a name gives are not always drawn.

Conditions: use of CAPTISOL

- increase in water solubility: > 5 fold
SMILES: OC(COc1cccc2ncccc12)CN1CCN([C@@H]2c3ccccc3[C@@H]3[C@H](c4ccccc42)C3(F)F)CC1 (stereo partly shown) [zosuquidar trihydrochloride]
